This passage reports Ki results from BindingDB's records for doi:10.1021/jm020951i (Uppsala University, 2003).

What all share (assay): Enzyme Inhibition Measurements
One experiment concerns the target Cathepsin D (Homo sapiens, UniProt P07339). As to the method: (§1) Enzyme activities were assayed by monitoring the hydrolysis of substrate in the presence or absence of inhibitor compounds. The hydrolysis was recorded as the increase in fluorescence intensity over a 10 min time period. IC50 values were obtained by assuming competitive inhibition and fitting the dose response data to the equation (Vi/V0) =1/ (1 + [I]/IC50)). The Ki was calculated by using Ki = IC50/ (1 + [S]/Km), and a Km value determined according to Michaelis-Menten.

The target of the next experiment is Plasmepsin I (Plasmodium falciparum, UniProt P39898). The following applies: pH 4.5; 22 °C. How it is done: as §1
Sequence of Plasmepsin I (P39898 whole entry): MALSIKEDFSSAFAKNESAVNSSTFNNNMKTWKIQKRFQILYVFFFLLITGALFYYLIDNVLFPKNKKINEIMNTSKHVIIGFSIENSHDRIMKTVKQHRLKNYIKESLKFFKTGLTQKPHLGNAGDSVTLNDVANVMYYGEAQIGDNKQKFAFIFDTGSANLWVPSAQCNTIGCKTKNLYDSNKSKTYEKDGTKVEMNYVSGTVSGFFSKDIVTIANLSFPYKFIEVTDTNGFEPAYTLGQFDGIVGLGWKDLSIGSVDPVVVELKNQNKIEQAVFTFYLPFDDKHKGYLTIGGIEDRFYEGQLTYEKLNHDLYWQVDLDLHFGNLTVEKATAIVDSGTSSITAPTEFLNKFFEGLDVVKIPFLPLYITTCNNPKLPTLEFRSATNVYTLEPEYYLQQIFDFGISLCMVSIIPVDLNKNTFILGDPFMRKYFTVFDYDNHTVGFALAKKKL
The target in a further experiment is Plasmepsin II (Plasmodium falciparum (isolate HB3), UniProt P46925). The following applies: pH 4.5; 22 °C. As to the method:
as §1

Sequence of Cathepsin D (P07339 65-162 limits assumed): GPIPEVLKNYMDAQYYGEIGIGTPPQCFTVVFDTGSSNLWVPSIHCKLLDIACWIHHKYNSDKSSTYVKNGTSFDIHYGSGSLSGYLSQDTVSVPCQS
Sequence of Cathepsin D (P07339 169-412 limits assumed): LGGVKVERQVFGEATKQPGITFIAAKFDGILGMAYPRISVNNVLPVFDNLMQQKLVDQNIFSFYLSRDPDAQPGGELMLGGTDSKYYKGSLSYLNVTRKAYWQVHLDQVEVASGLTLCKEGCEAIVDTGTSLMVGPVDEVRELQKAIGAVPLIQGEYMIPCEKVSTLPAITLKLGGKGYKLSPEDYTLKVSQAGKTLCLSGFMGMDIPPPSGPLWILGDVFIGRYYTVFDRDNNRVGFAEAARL
Sequence of Plasmepsin II (P46925 whole entry): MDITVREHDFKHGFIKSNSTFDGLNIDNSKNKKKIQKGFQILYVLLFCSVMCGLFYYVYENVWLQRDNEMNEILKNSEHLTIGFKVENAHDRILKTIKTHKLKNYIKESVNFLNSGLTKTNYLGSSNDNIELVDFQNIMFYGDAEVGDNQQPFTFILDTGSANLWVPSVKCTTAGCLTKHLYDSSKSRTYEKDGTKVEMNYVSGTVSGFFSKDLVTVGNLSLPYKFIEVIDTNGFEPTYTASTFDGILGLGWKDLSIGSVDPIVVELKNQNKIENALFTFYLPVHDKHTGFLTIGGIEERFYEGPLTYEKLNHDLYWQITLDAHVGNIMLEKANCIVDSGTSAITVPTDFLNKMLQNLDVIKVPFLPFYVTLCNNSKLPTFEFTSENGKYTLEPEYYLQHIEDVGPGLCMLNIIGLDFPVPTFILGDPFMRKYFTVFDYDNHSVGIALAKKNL

As for `CC(C)[C@H](NC(=O)c1ccccn1)C(=O)N[C@@H](Cc1ccccc1)[C@@H](O)CN[C@@H](Cc1ccc(-c2cccc(N)c2)cc1)C(N)=O` [(2S,5S,6R)-3-Aza-2-[p-(m-aminophenyl)benzyl]-5-hydroxy-7-phenyl-6-[(picolyl-L-valinyl)amino]heptanoyl Amide], affinity at Cathepsin D was put at a Ki of 1000 nM.
In the case of `COc1ccccc1-c1ccc(C[C@H](NC[C@H](O)[C@H](Cc2ccccc2)NC(=O)[C@@H](NC(=O)c2ccccn2)C(C)C)C(N)=O)cc1` [(2S,5S,6R)-3-Aza-5-hydroxy-2-[p-(o-methoxyphenyl)-benzyl]-7-phenyl-6-[(picolyl-L-valinyl)amino]heptanoyl Amide], on Cathepsin D, the affinity corresponds to a Ki of 1700 nM.
In the case of `Cc1ccc(-c2ccc(C[C@H](NC[C@H](O)[C@H](Cc3ccccc3)NC(=O)[C@@H](NC(=O)c3ccccn3)C(C)C)C(N)=O)cc2)cc1` [(2S)-N-[(2S,3S)-4-{[(1S)-1-carbamoyl-2-[4-(4-methylphenyl)phenyl]ethyl]amino}-3-hydroxy-1-phenylbutan-2-yl]-3-methyl-2-(pyridin-2-ylformamido)butanamide], on Cathepsin D, the affinity corresponds to a Ki of 1700 nM.
`CC(C)[C@H](NC(=O)c1ccccn1)C(=O)N[C@@H](Cc1ccccc1)[C@@H](O)CN[C@@H](Cc1ccccc1)C(N)=O` [(2S,5S,6R)-3-Aza-2-benzyl-5-hydroxy-7-phenyl-6-[(picolyl-L-valinyl)amino]heptanoyl Amide]: the Ki on Plasmepsin I came out at 2100 nM; on Plasmepsin II, 3200 nM.
For `CC(C)C[C@H](NC[C@H](O)[C@H](Cc1ccccc1)NC(=O)[C@@H](NC(=O)c1ccccn1)C(C)C)C(N)=O` [(2S)-2-{[(2S,3S)-2-hydroxy-3-[(2S)-3-methyl-2-(pyridin-2-ylformamido)butanamido]-4-phenylbutyl]amino}-4-methylpentanamide], the Ki at Plasmepsin I was 2900 nM; at Plasmepsin II, 3300 nM.
On the same counts, the results for `CC(C)[C@H](NC(=O)c1ccccn1)C(=O)N[C@@H](Cc1ccccc1)[C@@H](O)CN[C@H](Cc1ccccc1)C(N)=O` [(2R,5S,6R)-3-Aza-2-benzyl-5-hydroxy-7-phenyl-6-[(picolyl-L-valinyl)amino]heptanoyl Amide] are 8000 nM and 3500 nM.
